The source of these data is ChEMBL document CHEMBL1201862, “PubChem BioAssay data set” (2004).

One assay concerns the target CAAX prenyl protease 1 (Saccharomyces cerevisiae S288c, UniProt P47154). As to the kind of experiment: Ste24 protease inhibitors, dose response, biochemical, S. cerevisiae, plate reader, cherry-pick (AID 488815).
Assay [1] can be described thus: inhibitors of Trypanosoma cruzi host-cell infection, confirmation, beta-gal luminescence, NIH3T3 host cells (AID 2630). The format is functional, cell-based. The following applies: Mus musculus.
Assay [2] can be described thus: Luminescence Cell-Based/Microorganism Confirmation at Dose of Inhibitors of Trypanosoma cruzi Infection. [Related pubchem assays: 1885, 1968 ]. The format is functional.
Assay [3] is described as follows: inhibitors of intracellular T. cruzi replication, confirmation, NIH3T3 host cells, beta-gal luminescence (AID 2044).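 Also: intracellular parasites grown in NIH/3T3 mouse fibroblasts as host cells; luminescent beta-galactosidase reporter signal from transgenic T. cruzi replicating inside host cells; inhibitors lower the luminescence signal.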 The format is functional, cell-based.
A short description of assay [4]: cytotoxicity toward NIH3T3 fibroblasts, dose response, counter-screen, cell-based, ATP luminescence, mouse fibroblasts (AID 2010).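 Also: cells exposed to compound for about 90 hours before reading.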 It is filed as functional. (In general: A counterscreen serves to expose hits that act by an unwanted route or on another target.)
Assay [5] is described as follows: Luminescence Cell-Based Secondary HTS screen to identify cytotoxic compounds of NIH3T3 cells. [Related pubchem assays: 1885, 1968 ]. The format is functional.
In assay [6] the target is T1, Ubiquitin-conjugating enzyme E2 N (Homo sapiens, UniProt P61088).
T1 sequence (P61088 whole entry): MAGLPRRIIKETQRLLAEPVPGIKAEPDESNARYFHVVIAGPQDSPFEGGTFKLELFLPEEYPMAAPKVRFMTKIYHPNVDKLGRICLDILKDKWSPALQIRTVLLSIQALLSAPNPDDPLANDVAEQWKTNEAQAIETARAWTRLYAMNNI
It is filed as functional.

Assay [7] deals with T2, Kappa-type opioid receptor (Homo sapiens, UniProt P41145). It is filed as functional.
T2 sequence (P41145 whole entry): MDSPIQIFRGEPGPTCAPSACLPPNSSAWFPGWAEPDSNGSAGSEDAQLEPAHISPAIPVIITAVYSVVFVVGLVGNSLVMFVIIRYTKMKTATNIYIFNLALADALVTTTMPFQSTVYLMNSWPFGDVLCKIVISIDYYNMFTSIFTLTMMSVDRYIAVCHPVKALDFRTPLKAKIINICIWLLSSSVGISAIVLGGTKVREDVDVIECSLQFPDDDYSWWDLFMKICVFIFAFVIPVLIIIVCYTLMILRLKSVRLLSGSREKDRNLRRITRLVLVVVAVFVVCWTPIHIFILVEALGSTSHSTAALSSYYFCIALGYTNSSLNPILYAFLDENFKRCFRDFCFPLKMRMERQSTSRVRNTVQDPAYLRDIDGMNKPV
Assay [8] has as its target T3, Delta-type opioid receptor (Homo sapiens, UniProt P41143). As to the kind of experiment: HTS Image-Based Screen for Antagonists of the DOR Receptor. [Related pubchem assays (depositor defined):AID1777, AID1785, AID1786, AID2133]. The format is functional.
Assay [9] can be described thus: C. albicans growth with fluconazole, confirmation, fluorescence, retest (AID 2467). The format is functional, cell-based.
A further assay concerns the target T4, Bcl-2-related protein A1 (Mus musculus, UniProt Q07440).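 Also: confirmatory dose–response counterscreen on Bfl-1, used to check hits from a UBC13 polyubiquitin inhibitor campaign.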
T4 sequence (Q07440 whole entry): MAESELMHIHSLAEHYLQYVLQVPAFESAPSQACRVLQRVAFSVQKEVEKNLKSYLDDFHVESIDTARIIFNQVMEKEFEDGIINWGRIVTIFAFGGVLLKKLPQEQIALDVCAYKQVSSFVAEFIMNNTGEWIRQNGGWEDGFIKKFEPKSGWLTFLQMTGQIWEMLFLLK
The format is functional.

For assay [10], the target named is T5, Beta-galactosidase (Escherichia coli, UniProt Q8VNN2). The format is functional.
T5 sequence (Q8VNN2 whole entry): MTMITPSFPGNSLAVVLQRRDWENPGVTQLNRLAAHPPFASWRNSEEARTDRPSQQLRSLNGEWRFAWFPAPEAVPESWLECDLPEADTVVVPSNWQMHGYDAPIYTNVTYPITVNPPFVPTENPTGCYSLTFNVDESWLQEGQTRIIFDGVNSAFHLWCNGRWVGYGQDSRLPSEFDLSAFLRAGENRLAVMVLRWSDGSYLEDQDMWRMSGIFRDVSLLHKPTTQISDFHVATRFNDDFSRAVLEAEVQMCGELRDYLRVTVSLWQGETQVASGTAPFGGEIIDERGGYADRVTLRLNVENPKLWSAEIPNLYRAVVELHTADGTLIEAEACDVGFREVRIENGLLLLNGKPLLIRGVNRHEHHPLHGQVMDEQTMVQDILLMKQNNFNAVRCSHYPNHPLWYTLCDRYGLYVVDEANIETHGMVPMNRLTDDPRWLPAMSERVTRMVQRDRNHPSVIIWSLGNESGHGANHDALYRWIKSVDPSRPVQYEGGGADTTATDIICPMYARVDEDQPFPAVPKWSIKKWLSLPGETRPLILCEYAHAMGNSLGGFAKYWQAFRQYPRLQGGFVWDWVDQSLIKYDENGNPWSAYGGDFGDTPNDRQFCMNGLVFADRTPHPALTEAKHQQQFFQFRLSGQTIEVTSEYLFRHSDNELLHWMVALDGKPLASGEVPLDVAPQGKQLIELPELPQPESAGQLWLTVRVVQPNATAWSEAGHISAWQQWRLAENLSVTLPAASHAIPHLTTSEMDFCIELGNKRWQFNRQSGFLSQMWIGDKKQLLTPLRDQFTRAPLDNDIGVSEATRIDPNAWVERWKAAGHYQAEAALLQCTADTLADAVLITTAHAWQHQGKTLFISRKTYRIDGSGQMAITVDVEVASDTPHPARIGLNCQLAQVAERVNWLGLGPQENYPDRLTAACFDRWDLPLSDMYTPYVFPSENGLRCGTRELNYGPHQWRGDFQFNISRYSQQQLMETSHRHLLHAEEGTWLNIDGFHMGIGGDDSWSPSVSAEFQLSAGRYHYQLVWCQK
Assay [11] addresses T6, Type-1 angiotensin II receptor (Homo sapiens, UniProt P30556).
T6 sequence (P30556 whole entry): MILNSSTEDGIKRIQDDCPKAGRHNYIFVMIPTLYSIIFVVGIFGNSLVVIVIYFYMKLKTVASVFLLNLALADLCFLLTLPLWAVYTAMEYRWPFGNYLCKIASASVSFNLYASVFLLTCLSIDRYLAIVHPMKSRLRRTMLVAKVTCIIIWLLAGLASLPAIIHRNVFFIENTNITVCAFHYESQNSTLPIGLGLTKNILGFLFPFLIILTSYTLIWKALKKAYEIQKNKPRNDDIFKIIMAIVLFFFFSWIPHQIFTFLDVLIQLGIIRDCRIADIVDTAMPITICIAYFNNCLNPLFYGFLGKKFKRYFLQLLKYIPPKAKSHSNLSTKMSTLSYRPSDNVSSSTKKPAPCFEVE
Description: AT1 receptor antagonists, dose response, selectivity assay for APJ receptor antagonist project, cell-based, uHTS hits (AID 463214).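 Also: antagonist potency against angiotensin II stimulated AT1 response.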 It is filed as functional.

Assay [12] addresses T2, Kappa-type opioid receptor. It is filed as functional. This is another data set of the same source.
Another assay relates to Streptococcus. Description: Group A Streptococcus viability loss, dose response, counter-screen for streptokinase expression inhibitor project, luminescence, BacTiterGlo (AID 1915).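 Also: potency for reduction of bacterial viability or growth.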 The format is functional, organism-based.
Assay [13] is described as follows: control 3'UTR Renilla luciferase suppression, dose response, counter-screen for Shn3 inhibitor project, cell-based, Clone20-Shn3RL, cherry-picked (AID 624133). The format is functional.
Assay [14] can be described thus: HepG2 cell cytotoxicity, dose response, cytotoxicity control for Shn3 inhibitor project, CellTiter-Glo, cherry-picked (AID 624134). The format is functional, cell-based.
The next assay concerns the target Mu-type opioid receptor (Homo sapiens, UniProt P35372). As to the kind of experiment: HTS Image-Based Screen for Agonists of the MOR Receptor. [Related pubchem assays (depositor defined):AID1777, AID1785, AID1786, AID2133]. It is filed as functional.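 Also: imaging of beta-arrestin GFP recruitment into spots after receptor activation.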
The target in assay [15] is ATP-dependent molecular chaperone HSP82 (Candida albicans (strain WO-1) (Yeast), UniProt C4YTQ8). Description: loss of DOC-induced GRE-beta-galactosidase reporter signal, dose response, Hsp90 inhibitor project, S. cerevisiae, luminescence (AID 2400).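 Also: beta-galactosidase luminescence from glucocorticoid response element reporter as proxy for Hsp90 function; inhibitor potency where signal loss means Hsp90 inhibition.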 The format is functional, cell-based.
ATP-dependent molecular chaperone HSP82, sequence (C4YTQ8 whole entry): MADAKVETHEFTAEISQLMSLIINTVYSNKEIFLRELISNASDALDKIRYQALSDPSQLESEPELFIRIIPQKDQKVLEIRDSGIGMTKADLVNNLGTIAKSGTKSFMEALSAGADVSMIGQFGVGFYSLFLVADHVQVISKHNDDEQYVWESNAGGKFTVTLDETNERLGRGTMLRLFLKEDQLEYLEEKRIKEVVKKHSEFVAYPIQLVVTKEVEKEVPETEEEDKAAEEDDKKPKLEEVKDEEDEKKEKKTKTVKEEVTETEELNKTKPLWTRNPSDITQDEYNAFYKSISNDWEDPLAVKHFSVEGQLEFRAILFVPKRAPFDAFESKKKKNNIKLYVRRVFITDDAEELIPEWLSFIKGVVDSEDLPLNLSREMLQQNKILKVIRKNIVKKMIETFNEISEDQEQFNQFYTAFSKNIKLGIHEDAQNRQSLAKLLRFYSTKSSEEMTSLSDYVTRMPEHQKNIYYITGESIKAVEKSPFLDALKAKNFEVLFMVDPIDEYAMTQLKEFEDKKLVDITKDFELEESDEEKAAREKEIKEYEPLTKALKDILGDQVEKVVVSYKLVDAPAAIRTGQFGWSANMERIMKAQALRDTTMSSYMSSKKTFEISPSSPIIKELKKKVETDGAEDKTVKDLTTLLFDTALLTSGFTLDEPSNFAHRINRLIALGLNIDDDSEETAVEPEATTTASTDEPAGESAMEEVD
The target of assay [16] is T3, Delta-type opioid receptor. As to the kind of experiment: HTS Image-Based Screen for Agonists of the DOR Receptor. [Related pubchem assays (depositor defined):AID1777, AID1786, AID2133]. The format is functional.
The target in assay [17] is T7, Serine/threonine-protein phosphatase (Candida dubliniensis (strain CD36 / CBS 7987 / NCPF 3949 / NRRLY-17841) (Yeast), UniProt B9W6M3).
T7 sequence (B9W6M3 whole entry): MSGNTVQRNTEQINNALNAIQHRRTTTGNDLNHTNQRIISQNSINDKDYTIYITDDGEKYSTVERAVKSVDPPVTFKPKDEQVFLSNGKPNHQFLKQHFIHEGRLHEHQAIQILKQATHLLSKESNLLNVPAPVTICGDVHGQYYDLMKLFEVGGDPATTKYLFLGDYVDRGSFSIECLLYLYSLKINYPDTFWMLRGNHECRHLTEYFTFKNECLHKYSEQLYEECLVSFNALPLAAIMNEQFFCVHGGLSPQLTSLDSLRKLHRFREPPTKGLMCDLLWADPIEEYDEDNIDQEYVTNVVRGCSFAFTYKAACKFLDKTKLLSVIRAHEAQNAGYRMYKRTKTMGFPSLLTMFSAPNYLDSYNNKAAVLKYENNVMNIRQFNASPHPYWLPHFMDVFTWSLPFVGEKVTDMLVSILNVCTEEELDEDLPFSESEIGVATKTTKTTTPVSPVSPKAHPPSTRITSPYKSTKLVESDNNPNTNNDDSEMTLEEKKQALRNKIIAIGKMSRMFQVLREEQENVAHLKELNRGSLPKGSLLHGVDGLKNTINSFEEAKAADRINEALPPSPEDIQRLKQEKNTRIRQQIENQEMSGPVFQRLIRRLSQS
Description: calcineurin pathway inhibitors in yeast reporter, dose response, S. cerevisiae, CDRE-lacZ, luminescence, secondary (AID 2388).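 Also: yeast reporter cells carrying a calcineurin-responsive lacZ construct stimulated with calcium chloride; luminescent beta-galactosidase reporter signal in whole cells rather than isolated phosphatase activity; potency for inhibition where a drop in reporter signal means calcineurin blockade.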 It is filed as functional, cell-based.

The target of assay [18] is T1, Ubiquitin-conjugating enzyme E2 N. It is filed as functional. This is another data set of the same source.
In assay [19] the test system is Vero. Description: cells. The format is functional, cell-based. The following applies: Chlorocebus sabaeus.
Assay [20] deals with T5, Beta-galactosidase. As to the kind of experiment: PubChem AID 485352. The format is functional.
Assay [21] can be described thus: NIH-3T3 fibroblast cytotoxicity, dose response, cytotoxicity control, cell-based, fluorescence, Alamar Blue, secondary assay (AID 2327).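 Also: NIH-3T3 mouse fibroblasts cultured with fluconazole at 8 µg/mL.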 It is filed as functional. For orientation: Alamar Blue is a resazurin reagent that responds to reducing activity.
The target in the next assay is Cytochrome P450 2C19 (Homo sapiens, UniProt P33261). Description: Cytochrome panel assay with activity outcomes. Panel member name: p450-cyp2c19 Compounds with AC50 equal or less than 10 uM are considered active. The format is functional. The following applies: read-out: AC50.
Cytochrome P450 2C19, sequence (P33261 whole entry): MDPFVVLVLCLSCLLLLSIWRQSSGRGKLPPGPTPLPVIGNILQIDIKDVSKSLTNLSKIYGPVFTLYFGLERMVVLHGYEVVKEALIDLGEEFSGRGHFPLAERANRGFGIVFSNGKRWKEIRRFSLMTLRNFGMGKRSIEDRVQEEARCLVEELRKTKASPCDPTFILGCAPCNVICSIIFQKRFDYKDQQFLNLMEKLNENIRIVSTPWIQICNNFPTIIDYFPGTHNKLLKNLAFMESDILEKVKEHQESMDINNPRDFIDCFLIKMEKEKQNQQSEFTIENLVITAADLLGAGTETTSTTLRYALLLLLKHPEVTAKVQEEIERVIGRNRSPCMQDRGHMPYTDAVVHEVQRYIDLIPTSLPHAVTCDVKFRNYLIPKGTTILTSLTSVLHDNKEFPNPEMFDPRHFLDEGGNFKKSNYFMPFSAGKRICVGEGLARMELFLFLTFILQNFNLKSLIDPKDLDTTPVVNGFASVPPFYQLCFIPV
Assay [22] deals with Streptococcus sp. 'group A'. As to the kind of experiment: growth inhibition of control SK(-) GAS strain, dose response, counter-screen for streptokinase expression inhibitor project, luminescence, kanamycin, BacTiterGlo, confirmation (AID 1900). It is filed as functional, organism-based.
Assay [23] can be described thus: Shn3 3'UTR reporter inhibitors, dose response, cell-based, Clone20 osteoblasts, firefly luciferase, cherry-picked (AID 624132).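 Also: firefly luciferase luminescence from reporter carrying the Shn3 3'UTR in osteoblasts.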 The format is functional.
Assay [24] deals with Vero. Description: cells. The format is functional. As to conditions: Chlorocebus sabaeus.
Assay [25] concerns the target Tyrosine-protein phosphatase non-receptor type 7 (Homo sapiens, UniProt P35236). The format is functional.
Assay [26] deals with T8, Dual specificity protein phosphatase 6 (Rattus norvegicus, UniProt Q64346).
T8 sequence (Q64346 whole entry): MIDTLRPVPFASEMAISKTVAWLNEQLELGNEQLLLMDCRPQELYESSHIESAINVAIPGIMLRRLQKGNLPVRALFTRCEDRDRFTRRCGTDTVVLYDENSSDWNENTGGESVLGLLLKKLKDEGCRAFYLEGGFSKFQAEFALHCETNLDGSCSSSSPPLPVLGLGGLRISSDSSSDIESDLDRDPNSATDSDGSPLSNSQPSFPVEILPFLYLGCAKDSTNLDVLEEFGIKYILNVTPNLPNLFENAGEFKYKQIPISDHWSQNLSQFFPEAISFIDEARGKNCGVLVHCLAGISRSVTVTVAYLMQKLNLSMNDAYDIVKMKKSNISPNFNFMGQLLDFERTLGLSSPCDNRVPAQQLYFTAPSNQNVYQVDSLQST
Assay [27] has as its target T8, Dual specificity protein phosphatase 6. It is filed as functional.
Assay [28] deals with Glyceraldehyde-3-phosphate dehydrogenase (Homo sapiens, UniProt P04406).
Glyceraldehyde-3-phosphate dehydrogenase, sequence (P04406 whole entry): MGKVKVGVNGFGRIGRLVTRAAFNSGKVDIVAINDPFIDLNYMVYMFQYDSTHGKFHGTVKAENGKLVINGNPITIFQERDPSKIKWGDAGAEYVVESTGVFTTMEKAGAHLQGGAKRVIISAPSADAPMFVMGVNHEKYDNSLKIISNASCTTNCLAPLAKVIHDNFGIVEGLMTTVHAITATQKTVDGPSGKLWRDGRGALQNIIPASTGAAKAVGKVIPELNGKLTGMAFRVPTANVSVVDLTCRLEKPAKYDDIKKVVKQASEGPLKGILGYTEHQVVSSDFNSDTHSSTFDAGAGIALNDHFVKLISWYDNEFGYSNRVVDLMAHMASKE
The target in assay [29] is Lysine-specific demethylase 4C (Homo sapiens, UniProt Q9H3R0). Description: GASC-1 (JMJD2C) histone demethylase inhibitors, dose response, biochemical, DELFIA europium, cherry-picked samples (AID 488835). It is filed as functional.
Assay [30] can be described thus: cytotoxicity in HMLE control line with eGFP shRNA, dose response, counter-screen for HMLE_sh_ECad selective toxicity project, cell-based, HMLE_sh_eGFP, luminescence (AID 463074).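 Also: HMLE human mammary epithelial cells expressing control shRNA against eGFP.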 The format is functional, Homo sapiens.
A short description of assay [31]: Luminescence Cell-Based Dose Retest to Confirm Inhibitors of Cancer Stem Cells. [Related pubchem assays (depositor defined):AID2717, AID2721]. The format is functional. As to conditions: Homo sapiens.

Calls of active or inactive are those of the source.

T3 sequence (P41143 whole entry): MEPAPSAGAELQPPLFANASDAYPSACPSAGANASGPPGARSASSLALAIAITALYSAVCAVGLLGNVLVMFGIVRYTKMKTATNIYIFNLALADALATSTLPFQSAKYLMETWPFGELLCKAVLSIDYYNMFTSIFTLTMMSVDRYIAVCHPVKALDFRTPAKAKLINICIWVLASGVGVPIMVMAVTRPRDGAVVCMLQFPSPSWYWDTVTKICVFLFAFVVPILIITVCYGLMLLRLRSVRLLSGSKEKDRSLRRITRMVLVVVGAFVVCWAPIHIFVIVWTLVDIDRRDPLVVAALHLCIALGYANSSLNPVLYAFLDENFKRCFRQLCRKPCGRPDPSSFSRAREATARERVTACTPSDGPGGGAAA
CAAX prenyl protease 1, sequence (P47154 whole entry): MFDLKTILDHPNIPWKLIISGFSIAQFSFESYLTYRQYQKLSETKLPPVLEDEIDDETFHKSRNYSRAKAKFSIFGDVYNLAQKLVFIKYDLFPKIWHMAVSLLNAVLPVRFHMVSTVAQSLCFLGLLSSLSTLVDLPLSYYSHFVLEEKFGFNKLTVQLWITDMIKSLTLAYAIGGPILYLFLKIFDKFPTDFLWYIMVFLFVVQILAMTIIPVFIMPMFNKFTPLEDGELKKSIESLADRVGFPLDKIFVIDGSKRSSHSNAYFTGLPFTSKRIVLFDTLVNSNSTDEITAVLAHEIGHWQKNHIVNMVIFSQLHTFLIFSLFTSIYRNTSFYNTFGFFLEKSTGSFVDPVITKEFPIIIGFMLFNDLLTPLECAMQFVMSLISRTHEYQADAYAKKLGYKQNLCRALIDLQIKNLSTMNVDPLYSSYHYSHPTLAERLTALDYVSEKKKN
Tyrosine-protein phosphatase non-receptor type 7, sequence (P35236 whole entry): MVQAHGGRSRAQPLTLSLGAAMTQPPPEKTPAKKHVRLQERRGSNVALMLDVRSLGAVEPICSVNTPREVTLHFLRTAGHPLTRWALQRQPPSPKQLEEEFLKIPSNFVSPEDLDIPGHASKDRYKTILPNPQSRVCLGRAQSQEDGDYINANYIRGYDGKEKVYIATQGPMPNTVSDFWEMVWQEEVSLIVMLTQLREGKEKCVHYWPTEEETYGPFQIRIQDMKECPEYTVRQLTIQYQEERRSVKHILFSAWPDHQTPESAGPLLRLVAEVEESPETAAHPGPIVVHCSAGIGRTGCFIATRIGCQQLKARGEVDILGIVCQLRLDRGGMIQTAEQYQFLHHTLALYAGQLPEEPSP
Mu-type opioid receptor, sequence (P35372 whole entry): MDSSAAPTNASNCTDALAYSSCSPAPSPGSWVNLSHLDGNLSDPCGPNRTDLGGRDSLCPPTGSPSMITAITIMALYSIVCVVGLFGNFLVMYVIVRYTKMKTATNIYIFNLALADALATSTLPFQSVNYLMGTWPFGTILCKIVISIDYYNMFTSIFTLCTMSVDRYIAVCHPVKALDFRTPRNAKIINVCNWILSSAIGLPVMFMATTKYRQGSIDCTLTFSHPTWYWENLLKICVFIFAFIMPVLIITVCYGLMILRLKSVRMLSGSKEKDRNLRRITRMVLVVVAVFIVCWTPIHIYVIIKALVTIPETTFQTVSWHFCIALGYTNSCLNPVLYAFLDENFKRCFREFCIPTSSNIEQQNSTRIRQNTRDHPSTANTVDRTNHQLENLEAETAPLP

Take `Cc1cc(N2CCOCC2)n2cc(-c3ccccc3)nc2n1`: the AC50 (in general, the concentration giving half of the maximal activity seen) on CAAX prenyl protease 1 was 38.6 µM (active).

Regarding `O=S(=O)(NCC(c1cccnc1)N1CCN(c2ccc(F)cc2)CC1)c1ccccc1` (configuration not stated), the EC50 (commonly the concentration needed to bring the measured effect to its halfway point) in assay [1] was 0.057 µM (active); in assay [2] it was 0.057 µM (active); in assay [3], < 0.1 µM (active); in assay [4], > 60 µM (not active); in “cells”, 0.066 µM (active); in [5], > 195 µM (not active).

`CCCOc1ccc(C(=O)NNC(=S)NC(=O)CC)cc1`: the IC50 (commonly the concentration that inhibits the measured activity by half) in [6] was 9.02 µM (active); in [7], 7.95 µM (active); in assay [8] it was > 32 µM (inactive); at Bcl-2-related protein A1 it was > 20 µM (inactive); in assay [11], 7.14 µM (active); in [12], greater than 32 µM. In addition, the IC50 in [18] is 7.86 µM (active); with Vero [19], > 25 µM (active). In addition, the EC50 was 0.384 µM (active) in assay [9]; > 31.5 µM (inactive) at Beta-galactosidase [10]; 2.48 µM (active) with Streptococcus; > 32 µM (inactive) on Mu-type opioid receptor; 20.1 µM (active) in assay [15]; > 32 µM (inactive) in [16]. The EC50 is > 180 µM (inactive) in assay [17], > 40 µM (inactive) on Beta-galactosidase [20], 35.1 µM (active) in [21] and 0.612 µM (active) in assay [22]. Besides, the AC50 is 4.18 µM (active) in [13], > 70 µM (inactive) in [14], 20 µM (inconclusive) on Cytochrome P450 2C19 and 24.4 µM (active) in assay [23]. In the assay with Vero [24], the CC50 (in general, the concentration giving 50% cytotoxicity) is 21.3 µM (active).

As to `Cc1ccccc1Cn1c(=O)n(-c2ccccc2)c(=O)n([C@@H](C)C(N)=O)c1=O`, the IC50 in assay [25] is > 100 µM (not active); in [26] it was > 100 µM (inactive); in assay [27] it was > 100 µM (inactive); in assay [28] it was > 100 µM (not active).

For `COc1ccc(-c2nc(C#N)c(NCc3ccc(F)cc3)o2)cc1OC`, in assay [29], the AC50 was 59.4 µM (active).

As for `COc1cc(OC)cc(-c2c(-c3cccs3)c3cc(-c4ccc(N(C)C)nc4)ccc3n2C)c1`, the results for the AC50 in [30] and in assay [31] were 109 µM (active) and 28.5 µM (active), respectively.
